PubChem BioAssay AID248 (DTP/NCI, 2004)
Inconclusive results and toxic doses are left out.

System: L1210 leukemia ip in BDF1 mice, survival T/C
Test: NCI In Vivo Anticancer Drug Screen. Data for tumor model L1210 Leukemia (intraperitoneal) in B6D2F1 (BDF1) mice
Settings: endpoint: mean survival time, higher = longer survival
Outline: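 Read-out is survival time, reported as the treated-group measurement over the vehicle-control measurement.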

[1] = dose: 50.0 mg/kg/injection, schedule: Q01DX009 (ip), vehicle: saline
[2] = dose: 100.0 mg/kg/injection, schedule: Q01DX009 (ip), vehicle: saline
[3] = dose: 100.0 mg/kg/injection, schedule: Q04DX003 (ip), vehicle: saline
[4] = dose: 100.0 mg/kg/injection, schedule: Q01DX009 (ip), vehicle: other
[5] = dose: 100.0 mg/kg/injection, schedule: Q01DX001 (ip), vehicle: saline
[6] = dose: 200.0 mg/kg/injection, schedule: Q01DX001 (ip), vehicle: saline
[7] = dose: 100.0 mg/kg/injection, schedule: Q04DX003 (ip), vehicle: saline with Tween-80
[8] = dose: 200.0 mg/kg/injection, schedule: Q04DX003 (ip), vehicle: saline with Tween-80
[9] = dose: 400.0 mg/kg/injection, schedule: Q04DX003 (ip), vehicle: saline with Tween-80
[10] = dose: 100.0 mg/kg/injection, schedule: Q01DX001 (ip), vehicle: Klucel (hydroxypropylcellulose) (HPC)
[11] = dose: 200.0 mg/kg/injection, schedule: Q01DX001 (ip), vehicle: Klucel (hydroxypropylcellulose) (HPC)
[12] = dose: 400.0 mg/kg/injection, schedule: Q01DX001 (ip), vehicle: Klucel (hydroxypropylcellulose) (HPC)
[13] = dose: 200.0 mg/kg/injection, schedule: Q01DX009 (ip), vehicle: saline
[14] = dose: 200.0 mg/kg/injection, schedule: Q04DX003 (ip), vehicle: saline
[15] = dose: 400.0 mg/kg/injection, schedule: Q04DX003 (ip), vehicle: saline

SMILES: CC(C)(CCCl)NCc1ccccc1
- T/C (dose: 25.0 mg/kg/injection, schedule: Q01DX009 (ip), vehicle: saline): 101 % of control
- T/C [1]: 104 % of control
- T/C [2]: 88 % of control
- T/C [3]: 99 % of control

SMILES: Cc1nc2sc3c(c2c(=O)[nH]1)CCCC3
- T/C (dose: 50.0 mg/kg/injection, schedule: Q01DX001 (ip), vehicle: saline sonified): 122 % of control
- T/C (dose: 100.0 mg/kg/injection, schedule: Q01DX001 (ip), vehicle: saline sonified): 103 % of control
- T/C (dose: 200.0 mg/kg/injection, schedule: Q01DX001 (ip), vehicle: saline sonified): 101 % of control

SMILES: NC(CSC(c1ccccc1)(c1ccccc1)c1ccc(F)cc1)C(=O)O (centres undefined)
- T/C (dose: 5.5 mg/kg/injection, schedule: Q01DX009 (ip), vehicle: saline): 117 % of control
- T/C (dose: 8.2 mg/kg/injection, schedule: Q01DX009 (ip), vehicle: saline): 117 % of control
- T/C [1]: 161 % of control
- T/C [4]: 100 % of control

SMILES: c1ccc2c3c([nH]c2c1)C1CC2CC(C1)CC3C2
- T/C (dose: 100.0 mg/kg/injection, schedule: Q04DX003 (ip), vehicle: alcohol): 105 % of control
- T/C (dose: 200.0 mg/kg/injection, schedule: Q04DX003 (ip), vehicle: alcohol): 96 % of control
- T/C (dose: 400.0 mg/kg/injection, schedule: Q04DX003 (ip), vehicle: alcohol): 96 % of control

SMILES: O=C(O)C12C3CCC(O3)C1(C(=O)O)C1CCC2O1 (centres undefined)
- T/C (dose: 100.0 mg/kg/injection, schedule: Q04DX002 (ip), vehicle: Klucel (hydroxypropylcellulose) (HPC)): 104 % of control
- T/C (dose: 200.0 mg/kg/injection, schedule: Q04DX002 (ip), vehicle: Klucel (hydroxypropylcellulose) (HPC)): 104 % of control
- T/C (dose: 400.0 mg/kg/injection, schedule: Q04DX002 (ip), vehicle: Klucel (hydroxypropylcellulose) (HPC)): 104 % of control

SMILES: O=C1/C(=C\c2ccc([N+](=O)[O-])cc2)CS(=O)(=O)C/C1=C/c1ccc([N+](=O)[O-])cc1
- T/C (dose: 50.0 mg/kg/injection, schedule: Q01DX009 (ip), vehicle: Klucel (hydroxypropylcellulose) (HPC)): 97 % of control
- T/C [5]: 97 % of control
- T/C (dose: 100.0 mg/kg/injection, schedule: Q01DX009 (ip), vehicle: Klucel (hydroxypropylcellulose) (HPC)): 93 % of control
- T/C [6]: 94 % of control
- T/C (dose: 200.0 mg/kg/injection, schedule: Q01DX009 (ip), vehicle: Klucel (hydroxypropylcellulose) (HPC)): 92 % of control

SMILES: CCCCn1c(=O)cc(C(=O)O)c2ccccc21
- T/C [7]: 101 % of control
- T/C [8]: 101 % of control
- T/C [9]: 95 % of control

SMILES: COC(=O)c1ccc(OC(=O)Nc2ccc(C)c(NC(=O)Oc3ccc(C(=O)OC)cc3)c2)cc1
- T/C (dose: 50.0 mg/kg/injection, schedule: Q01DX009 (ip), vehicle: saline with Tween-80): 96 % of control
- T/C (dose: 100.0 mg/kg/injection, schedule: Q01DX009 (ip), vehicle: saline with Tween-80): 96 % of control
- T/C (dose: 200.0 mg/kg/injection, schedule: Q01DX009 (ip), vehicle: saline with Tween-80): 101 % of control

SMILES: CN(C)c1ccc2c(c1)N=[N+]([O-])c1cc(N(C)C)ccc1C2
- T/C [10]: 97 % of control
- T/C [11]: 97 % of control
- T/C [12]: 89 % of control

SMILES: CN=C(c1ccc(NC(=O)c2cc(N)cc(C(=O)Nc3ccc(C(=NC)N(C)C)cc3)c2)cc1)N(C)C
- T/C (dose: 0.9 mg/kg/injection, schedule: Q01DX Z (ip), vehicle: carboxymethylcellulose (CMC)): 94 % of control
- T/C (dose: 1.87 mg/kg/injection, schedule: Q01DX Z (ip), vehicle: carboxymethylcellulose (CMC)): 97 % of control
- T/C (dose: 3.75 mg/kg/injection, schedule: Q01DX Z (ip), vehicle: carboxymethylcellulose (CMC)): 91 % of control
- T/C (dose: 7.5 mg/kg/injection, schedule: Q01DX Z (ip), vehicle: carboxymethylcellulose (CMC)): 100 % of control
- T/C (dose: 15.0 mg/kg/injection, schedule: Q01DX Z (ip), vehicle: carboxymethylcellulose (CMC)): 100 % of control
- T/C (dose: 30.0 mg/kg/injection, schedule: Q01DX Z (ip), vehicle: carboxymethylcellulose (CMC)): 91 % of control

SMILES: NC(=O)CCCCCCCC(N)=O
- T/C (dose: 100.0 mg/kg/injection, schedule: Q04DX003 (ip), vehicle: Klucel (hydroxypropylcellulose) (HPC)): 89 % of control
- T/C (dose: 200.0 mg/kg/injection, schedule: Q04DX003 (ip), vehicle: Klucel (hydroxypropylcellulose) (HPC)): 89 % of control
- T/C (dose: 400.0 mg/kg/injection, schedule: Q04DX003 (ip), vehicle: Klucel (hydroxypropylcellulose) (HPC)): 94 % of control

SMILES: O=C(O)Cc1ccc(Cl)c(Cl)c1
- T/C [1]: 94 % of control
- T/C [2]: 105 % of control
- T/C [13]: 108 % of control

SMILES: CNC1(C(N)=O)CCCCC1
- T/C [1]: 91 % of control
- T/C [5]: 102 % of control
- T/C [2]: 96 % of control
- T/C [3]: 100 % of control
- T/C [6]: 107 % of control
- T/C [13]: 106 % of control
- T/C [14]: 100 % of control
- T/C (dose: 400.0 mg/kg/injection, schedule: Q01DX001 (ip), vehicle: saline): 104 % of control
- T/C [15]: 96 % of control

SMILES: NC(=O)C1CCCCC1C(N)=O (centres undefined)
- T/C [7]: 96 % of control
- T/C [8]: 102 % of control
- T/C [9]: 96 % of control

SMILES: O=C(CCl)Nc1cccc2c1C(=O)c1c(c(O)c3ccccc3c1O)C2=O
- T/C [7]: 94 % of control
- T/C [8]: 92 % of control
- T/C [9]: 90 % of control

SMILES: Nc1[nH]c(=S)ncc1-c1cccc(Cl)c1
- T/C (dose: 50.0 mg/kg/injection, schedule: Q01DX001 (ip), vehicle: Klucel (hydroxypropylcellulose) (HPC)): 110 % of control
- T/C [10]: 117 % of control
- T/C [11]: 114 % of control

SMILES: COC(=O)c1coc(C(=O)N2CCCC2)c1C(=O)O
- T/C (dose: 75.0 mg/kg/injection, schedule: Q04DX003 (ip), vehicle: Klucel (hydroxypropylcellulose) (HPC)): 93 % of control
- T/C [10]: 103 % of control
- T/C (dose: 150.0 mg/kg/injection, schedule: Q04DX003 (ip), vehicle: Klucel (hydroxypropylcellulose) (HPC)): 105 % of control
- T/C [11]: 101 % of control
- T/C (dose: 300.0 mg/kg/injection, schedule: Q04DX003 (ip), vehicle: Klucel (hydroxypropylcellulose) (HPC)): 98 % of control
- T/C [12]: 103 % of control

SMILES: Oc1ccc(O)c(CCCCCc2cc(O)ccc2O)c1
- T/C (dose: 25.0 mg/kg/injection, schedule: Q01DX009 (ip), vehicle: other): 106 % of control
- T/C (dose: 50.0 mg/kg/injection, schedule: Q01DX009 (ip), vehicle: other): 98 % of control
- T/C (dose: 100.0 mg/kg/injection, schedule: Q01DX001 (ip), vehicle: saline with Tween-80): 104 % of control
- T/C [4]: 97 % of control
- T/C (dose: 200.0 mg/kg/injection, schedule: Q01DX001 (ip), vehicle: saline with Tween-80): 100 % of control
- T/C (dose: 400.0 mg/kg/injection, schedule: Q01DX001 (ip), vehicle: saline with Tween-80): 100 % of control

SMILES: N#CCc1cnc2ccccc2n1
- T/C (dose: 6.25 mg/kg/injection, schedule: Q01DX009 (ip), vehicle: saline with Tween-80): 96 % of control
- T/C (dose: 12.5 mg/kg/injection, schedule: Q01DX009 (ip), vehicle: saline with Tween-80): 98 % of control
- T/C (dose: 12.5 mg/kg/injection, schedule: Q04DX003 (ip), vehicle: saline with Tween-80): 94 % of control
- T/C (dose: 25.0 mg/kg/injection, schedule: Q01DX009 (ip), vehicle: saline with Tween-80): 101 % of control
- T/C (dose: 25.0 mg/kg/injection, schedule: Q04DX003 (ip), vehicle: saline with Tween-80): 96 % of control

SMILES: CCOC(=O)CN1CCN2C(=O)N(CC)CCC2C1 (centres undefined)
- T/C [3]: 95 % of control
- T/C [14]: 90 % of control
- T/C [15]: 101 % of control

SMILES: COc1ccc(CN2CCCN(Cc3ccc(OC)cc3)C2c2c(O)ccc3ccccc23)cc1
- T/C (dose: 5.0 mg/kg/injection, schedule: Q01DX001 (ip), vehicle: acetone): 100 % of control
- T/C (dose: 10.0 mg/kg/injection, schedule: Q01DX001 (ip), vehicle: acetone): 95 % of control
- T/C (dose: 20.0 mg/kg/injection, schedule: Q01DX001 (ip), vehicle: acetone): 92 % of control
- T/C (dose: 40.0 mg/kg/injection, schedule: Q01DX001 (ip), vehicle: acetone): 88 % of control

SMILES: CCC[N+](C)(C)CCCCOCCCC[N+](C)(C)CCC
- T/C (dose: 3.12 mg/kg/injection, schedule: Q01DX009 (ip), vehicle: saline): 104 % of control
- T/C (dose: 6.25 mg/kg/injection, schedule: Q01DX009 (ip), vehicle: saline): 92 % of control
- T/C (dose: 12.5 mg/kg/injection, schedule: Q01DX009 (ip), vehicle: saline): 103 % of control
- T/C (dose: 12.5 mg/kg/injection, schedule: Q04DX003 (ip), vehicle: saline): 95 % of control
